Laboratory results: the supplement of paper PMC10307832

Assays:
Assay in all cases: relative viability (nuclei count vs DMSO), 5 days (fraction); higher = more cells survive
NCI-H2085 = system: NCI-H2085
Procedure, shortened: (§1)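 Relative viability divides the nuclei count in treated wells by that in vehicle wells. Lung cancer cell lines were seeded in 1536-well plates, dosed by pin tool the next day, and fixed and stained after 5 days in one step with final 0.05% Triton X-100, 1% formaldehyde and 1 ug/ml Hoechst. Dosing was a single drug or a fixed anchor-drug dose plus five library-drug doses (not always all listed) in √10 steps, and values are medians of duplicate plates imaged at 4×.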

NCI-H2126 = system: NCI-H2126
Procedure, shortened: as §1

NCI-H2342 = system: NCI-H2342
Procedure, shortened: as §1

NCI-H2347 = system: NCI-H2347
Procedure, shortened: as §1

NCI-H358 = system: NCI-H358
Procedure, shortened: as §1

NCI-H460 = system: NCI-H460
Procedure, shortened: as §1

NCI-H522 = system: NCI-H522
Procedure, shortened: as §1

NCI-H650 = system: NCI-H650
Procedure, shortened: as §1

NCI-H838 = system: NCI-H838
Procedure, shortened: as §1

PC-14 = system: PC-14
Procedure, shortened: as §1

SW 1573 = system: SW 1573
Procedure, shortened: as §1

UMC-11 = system: UMC-11
Procedure, shortened: as §1

COc1cc(N2CCC(C(N)=O)CC2)ccc1Nc1nc(N)c(Cl)c(Nc2ccccc2S(=O)(=O)C(C)C)n1 [HG-5-88-01] + O=C(CCCCCCC(=O)Nc1ccccc1)NO [Vorinostat] (partner 1 µM)
relative viability (NCI-H2085; first compound 0.04 µM): 0.825
relative viability (NCI-H2085; first compound 0.1265 µM): 0.846
relative viability (NCI-H2085; first compound 0.4 µM): 0.729
relative viability (NCI-H2085; first compound 1.265 µM): 0.791
relative viability (NCI-H2085; first compound 4 µM): 0.758
relative viability (NCI-H2126; first compound 0.04 µM): 0.653
relative viability (NCI-H2126; first compound 0.1265 µM): 0.813
relative viability (NCI-H2126; first compound 0.4 µM): 0.713
relative viability (NCI-H2126; first compound 1.265 µM): 0.594
relative viability (NCI-H2126; first compound 4 µM): 0.456
relative viability (NCI-H2342; first compound 0.04 µM): 0.654
relative viability (NCI-H2342; first compound 0.1265 µM): 0.961
relative viability (NCI-H2342; first compound 0.4 µM): 0.737
relative viability (NCI-H2342; first compound 4 µM): 0.945
relative viability (NCI-H2347; first compound 0.04 µM): 0.52
relative viability (NCI-H2347; first compound 0.1265 µM): 0.544
relative viability (NCI-H2347; first compound 0.4 µM): 0.731
relative viability (NCI-H2347; first compound 1.265 µM): 0.553
relative viability (NCI-H2347; first compound 4 µM): 0.577
relative viability (NCI-H358; first compound 0.04 µM): 0.666
relative viability (NCI-H358; first compound 0.1265 µM): 0.602
relative viability (NCI-H358; first compound 0.4 µM): 0.544
relative viability (NCI-H358; first compound 1.265 µM): 0.155
relative viability (NCI-H358; first compound 4 µM): 0.182
relative viability (NCI-H460; first compound 0.04 µM): 0.72
relative viability (NCI-H460; first compound 0.1265 µM): 0.737
relative viability (NCI-H460; first compound 0.4 µM): 0.678
relative viability (NCI-H460; first compound 1.265 µM): 0.783
relative viability (NCI-H460; first compound 4 µM): 0.595
relative viability (NCI-H522; first compound 0.04 µM): 0.923
relative viability (NCI-H522; first compound 0.1265 µM): 0.855
relative viability (NCI-H522; first compound 0.4 µM): 0.784
relative viability (NCI-H522; first compound 1.265 µM): 0.667
relative viability (NCI-H522; first compound 4 µM): 0.671
relative viability (NCI-H650; first compound 0.04 µM): 0.409
relative viability (NCI-H650; first compound 0.1265 µM): 0.402
relative viability (NCI-H650; first compound 0.4 µM): 0.386
relative viability (NCI-H650; first compound 1.265 µM): 0.424
relative viability (NCI-H650; first compound 4 µM): 0.29
relative viability (NCI-H838; first compound 0.04 µM): 0.745
relative viability (NCI-H838; first compound 0.1265 µM): 0.707
relative viability (NCI-H838; first compound 0.4 µM): 0.651
relative viability (NCI-H838; first compound 1.265 µM): 0.596
relative viability (NCI-H838; first compound 4 µM): 0.53
relative viability (PC-14; first compound 0.04 µM): 0.813
relative viability (PC-14; first compound 0.1265 µM): 0.759
relative viability (PC-14; first compound 0.4 µM): 0.656
relative viability (PC-14; first compound 1.265 µM): 0.261
relative viability (PC-14; first compound 4 µM): 0.155
relative viability (SW 1573; first compound 0.04 µM): 0.657
relative viability (SW 1573; first compound 0.1265 µM): 0.896
relative viability (SW 1573; first compound 0.4 µM): 0.816
relative viability (SW 1573; first compound 1.265 µM): 0.755
relative viability (SW 1573; first compound 4 µM): 0.851
relative viability (UMC-11; first compound 0.04 µM): 0.437
relative viability (UMC-11; first compound 0.1265 µM): 0.442
relative viability (UMC-11; first compound 0.4 µM): 0.354
relative viability (UMC-11; first compound 1.265 µM): 0.33
relative viability (UMC-11; first compound 4 µM): 0.288
